Patent publication US20030232101A1, “Topical formulations of resorcinols and cannibinoids and methods of use” (Immugen Pharmaceuticals, Inc., priority 2002, published 2003)
“Also recorded” adds a separate entry of the source. Like-named read-outs stand apart in the source and are kept apart here.

Columns and labels:
HIV-1 = assay: HeLa CD4 LTR β-gal HIV-1 attachment assay (Experimental Example 1); assay type: cell-based; settings: for IC50: Human immunodeficiency virus 1, HeLa; for inhibition of HIV attachment/entry: following a 24 h pre-incubation
HIV-1 (96USHIPS7 strain) = assay: HIV attachment assay in PBMCs (cell-associated p24); assay type: cell-based; settings: for Comments: effect on HIV attachment / % Control / pg p24: 15 μM; for Comments: effect on HIV attachment: pretreatment 0, 2, 4, 24 h
Experimental: ELISA kits were purchased from Coulter Electronics. The assay was performed according to the manufacturer's instructions. Control curves were generated in each assay to accurately quantitate the amount of p24 antigen in each sample. For experiments using cell lysates. Fifty thousand (5×10^4) viable cells were lysed in Coulter ELISA buffer and subjected to 1 round of freeze/thawed to liberate trapped p24 and p24 detected per manufacturers instructions. HIV capsid protein (p24) was quantitated spectrophotometrically at 450 nm using a Molecular Devices Vmax plate reader using a standard curve. Final concentrations were calculated from the optical density values using the Molecular Devices Soft Max software package.
The attachment assay with PBMCs was performed as follows. Briefly, 1×10^6 PHA/IL-2 PBMCs were incubated for 0, 2, 4 and 24 hours with IMG compounds and cannabidiol in polypropylene tubes. A pre-titered amount of HIV-1 (96USHIPS7 strain, obtained from the AIDS Research and Reference Reagent Program ) was added in the presence of compound and incubated for 3 h at 37° C. After incubation the cultures were washed 3 times (400×g, 10 min, 4° C.) with media (1:25,000 dilution of input p24), the cell pellets lysed with p24 lysing buffer (Coulter) and p24 content determined by ELISA.
PBMCs pretreated with compounds for 0, 2, 4, and 24 were incubated with cell-free HIV-1 for 3 h and the excess unbound HIV removed. The assessed the amount of HIV bound to the cell was then assessed by measuring cell-associated p24 content of total cell lysates.

[1] = system: peripheral blood mononuclear cells (PBMCs); assay: PBMC cell viability in time of addition assay (MTS / Trypan Blue); assay type: cell-based, Human; settings: read-out: TC50 (the source's name)
Description: (§1) Human peripheral blood mononuclear cells (PBMCs) from a minimum of 2 donors, that have been blasted with PHA and IL-2, were counted, viability determined by Trypan Blue dye exclusion and mixed in equal ratios. Pooled donors were used to minimize the variability observed between individual donors which results from quantitative and qualitative differences in HIV infection and overall response to the PHA and IL-2 of primary lymphocyte populations. The cells were resuspended at 1×10^6 cells /mL in RPMI 1640 without phenol red supplemented with 15% Fetal Bovine Serum (heat inactivated), 2 mM L-glutamine, 100 U/mL penicillin, 100 μg/mL streptomycin, 10 μg/mL gentamycin and IL-2 (20 U/mL, R&D Systems, Minneapolis, Minn.). Fifty microliters of cells were then distributed to the inner 60 wells of a 96 well round bottom microtiter culture plate in a standard format developed by the Infectious Disease Research department of Southern Research Institute. Each plate contains cell control wells (cells only), virus control wells (cells plus virus), and experimental wells (drug plus cells plus virus). Alternatively, cells were cultured in T25 cm^2 or T75 cm^2 tissue culture flasks at a starting density of 1×10^6 cells per ml. Serially diluted compounds were added to the microtiter plate or tissue culture flask followed by the appropriate pre-titered strain of HIV-1. For virus replication inhibition experiments the HIV-1 strain RoJo was used. This is a low passage presumable subtype B pediatric isolate with a syncytium inducing (SI) phenotype in MT-2 cells isolated by Southern Research Institute personnel. All samples were assayed in triplicate where possible with an accompanying determination of compound toxicity. The final volume per well in the microtiter plates was 200 μL. The final volume in the tissue culture flask varied depending upon experimental design and flask size. Assays were incubated for 6 days in a humidified atmosphere at 37° C., 5% CO^2, after which supernatants were collected, for analysis of RT activity and cell viability by MTS dye reduction. Culture were also examined microscopically, any abnormalities noted, and in the case of tissue culture flasks cell counts and viability determined by Trypan Blue Dye exclusion.
(§2) Time of addition assays were performed with PBMCs in two ways. For both assays, PBMCs were isolated and cultured under the conditions as described above. Time of addition assays were carried out in either a tissue culture flask format (T-75 cm^2) or in microtiter wells. In both cases due to the lack of plastic adherence and heterogeneity of the PBMC population for susceptibility to infection, it was not possible to use complete removal of virus following a timed adsorption to synchronize the infection and limit the assay to a single round of infection. Therefore, serial washing by partial removal of the media was used to reduce the concentration of virus and compound (if required) in the assay. Compound addition in relationship to antiviral activity was either assessed over a short addition interval immediately before or after virus addition or for up to 72 h post infection. For all assays virus replication was assessed at 6 days of culture by determining RT expression in cell-free supernatants. In the tissue culture flask format cells were counted and Trypan Blue Dye exclusion used to monitor compound cytotoxicity. Cell viability in the 96 well microtiter plate format was determined by MTS dye reduction. AZT was used as a positive control.
(§3) At assay termination the assay plates were stained with the soluble tetrazolium-based dye MTS (CellTiter96® Reagent Promega) to determine cell viability and quantify compound toxicity. MTS is metabolized by the mitochondria enzymes of metabolically active cells to a soluble formazan product, allowing the rapid quantitative analysis cell viability and compound cytotoxicity. […] At termination of the assay 20 μL of MTS reagent was added per well and incubated for 4 h at 37° C. […]

[2] = as above; assay type: cell-based, Human; settings: human; treatment −4 h pre; read-out: TC50
Description: as §1, §2, §3

HIV-1 strain RoJo = assay: PBMC time of addition assay (RT activity in supernatant at 6 days); assay type: cell-based; settings: for IC50: Human immunodeficiency virus 1, PBMC; for fold regain of potency (decrease in IC50): 4 h pretreatment, after the loss at 2 h
Description: as §1, §2
Reverse transcriptase activity was measured in cell-free supernatants. Tritiated thymidine triphosphate (NEN) (TTP) was resuspended in distilled H2O at 5 Ci/mL. Poly rA and oligo dT were prepared as a stock solution which was kept at −20° C. The RT reaction buffer was prepared fresh on a daily basis and consists of 125 μL 1.0 M EGTA, 125 μL dH2O, 110 μL 10% SDS, 50 μL 1.0 M Tris (pH 7.4), 50 μL 1.0 M DTT, and 40 μL 1.0 M MgCl2. […]

[3] = addition prior to infection, pre-treatment 0 h
[4] = addition prior to infection, pre-treatment 2 h
[5] = addition prior to infection, pre-treatment 4 h
[6] = addition prior to infection, pre-treatment 24 h

| Compound | IC50 (HIV-1; Experiment 1, pretreat 0 h) [µM] | IC50 (HIV-1; Experiment 1, pretreat 4 h) [µM] | IC50 (HIV-1; Experiment 1, pretreat 24 h) [µM] | IC50 (HIV-1; Experiment 2, pretreat 0 h) [µM] | IC50 (HIV-1; Experiment 2, pretreat 4 h) [µM] | IC50 (HIV-1; Experiment 2, pretreat 24 h) [µM] | β-galactosidase production relative to background (cells alone+compounds) (HIV-1; at all times) | inhibition of HIV attachment/entry (HIV-1) | Comment: suppression of β-galactosidase activity (HIV-1; pretreat 24 h) | % Control (HIV-1 (96USHIPS7 strain); time 0 h) [%] | pg p24 (HIV-1 (96USHIPS7 strain); time 0 h) [pg] | % Control (HIV-1 (96USHIPS7 strain); time 2 h) [%] | pg p24 (HIV-1 (96USHIPS7 strain); time 2 h) [pg] | % Control (HIV-1 (96USHIPS7 strain); time 4 h) [%] | pg p24 (HIV-1 (96USHIPS7 strain); time 4 h) [pg] | % Control (HIV-1 (96USHIPS7 strain); time 24 h) [%] | pg p24 (HIV-1 (96USHIPS7 strain); time 24 h) [pg] | CC50 ([1]; treatment 6 h post) [µM] | CC50 ([1]; treatment at infection) [µM] | CC50 at 6 days [2] [µM] | also measured |
| --- | --- | --- | --- | --- | --- | --- | --- | --- | --- | --- | --- | --- | --- | --- | --- | --- | --- | --- | --- | --- | --- |
| Cc1ccc2c(c1)-c1c(O)cc(C(C)(C)CCCC(C)C)cc1OC2(C)C [IMG511, 3-Norpentyl-3-(1,1,5-trimethylhexyl)cannabinol] | 25 | 9.5 | 2.5 | < 0.16 | 8.3 | 7.1 | suppressed β-galactosidase production below background | consistent inhibition | Suppression of β-galactosidase activity | 75.5 | 290 | 85.4 | 328 | 76.6 | 294 | 91.7 | 352 | > 100 | > 100 | > 100 | Comment: suppression of β-galactosidase activity (HIV-1; pretreat 0 h): Suppression of β-galactosidase activity; Comment: suppression of β-galactosidase activity (HIV-1; pretreat 4 h): Suppression of β-galactosidase activity,; Comment: transient suppression lost at lower concentrations (HIV-1; pretreat 4 h): Transient suppression lost with at lower; Comments: effect on HIV attachment (HIV-1 (96USHIPS7 strain)): No Significant effect; fold increase in IC50 (HIV-1 strain RoJo; 24 h pretreatment): 5-fold increase in IC50; IC50 (HIV-1 strain RoJo; 4 h, treatment −4 h pre): 15.2 µM; IC50 (HIV-1 strain RoJo; 6 h, treatment 6 h post): 9.3 µM; IC50 (HIV-1 strain RoJo; [3]): 6.6 µM; IC50 (HIV-1 strain RoJo; [4]): 9.4 µM; IC50 (HIV-1 strain RoJo; [5]): 11.7 µM; IC50 (HIV-1 strain RoJo; [6]): 33.2 µM; IC50 (HIV-1 strain RoJo; treatment at infection): 16.9 µM |
| C=C(C)[C@@H]1CCC(C)=C[C@H]1c1c(O)cc(CCCCC)cc1O [Cannabidiol, reference compound] | 14.1 | 6.8 | 1.2 | 1.3 | 28 | 1.4 | suppressed β-galactosidase production below background | consistent inhibition | Suppression of β-galactosidase activity | 82.6 | 317 | 74.5 | 286 | 90.9 | 349 | 114.3 | 439 | > 100 | > 100 | > 100 | Comment: suppression of β-galactosidase activity (HIV-1; pretreat 0 h): Exp. 1 suppression of β-galactosidase; Comment: suppression of β-galactosidase activity (HIV-1; pretreat 4 h): Suppression of β-galactosidase activity; Comments: effect on HIV attachment (HIV-1 (96USHIPS7 strain)): No significant effect; virus binding relative to control (HIV-1 (96USHIPS7 strain); pretreated for 24 h): return to control levels of virus binding; fold loss of activity (potency) (HIV-1 strain RoJo; 2 h pretreatment, listed as cannabidiol): approximately 10 fold; fold regain of potency (decrease in IC50) (HIV-1 strain RoJo): activity at 2 , regain 3.3-fold; fold regain of potency (decrease in IC50) (HIV-1 strain RoJo; listed as cannabidiol): 3.3 fold; fold increase in IC50 (HIV-1 strain RoJo; 24 h pretreatment): fold at 4 h then a 17-; fold increase in IC50 (HIV-1 strain RoJo; 24 h pretreatment, listed as cannabidiol): 17 fold; IC50 (HIV-1 strain RoJo; addition prior to infection, pre-treatment 0 h, read-out: IC50): 0.58 µM; IC50 (HIV-1 strain RoJo; addition prior to infection, pre-treatment 2 h, read-out: IC50): 5 µM; IC50 (HIV-1 strain RoJo; addition prior to infection, pre-treatment 4 h, read-out: IC50): 1.5 µM |
| CC1=CCC2C(C1)c1c(O)cc(C(C)(C)CCCC(C)C)cc1OC2(C)C (stereo not shown) [IMG509, 3-Norpentyl-3-(1,1,5-trimethylhexyl)-Δ8-tetrahydrocannabinol] | > 50 | 21 | 11.5 | 28 | 36 | 3.5 | – | not | Suppression of β-galactosidase activity | 83.6 | 321 | 81.8 | 314 | 61.2 | 235 | 77.3 | 297 | > 100 | > 100 | > 100 | β-galactosidase production relative to background (cells alone+compounds) (HIV-1; following 24 h exposure): suppressed β-galactosidase production below background; Comment: transient suppression lost at lower concentrations (HIV-1; pretreat 0 h): transient suppression of virus replication; also recorded: Transient suppression lost with at lower; inhibition of HIV cell-association (HIV-1 (96USHIPS7 strain); 4 h preincubation): significantly inhibit HIV cell-association; fold decrease in IC50 (HIV-1 strain RoJo; 24 h pretreatment): approximately 2 fold; IC50 (HIV-1 strain RoJo; 4 h, treatment −4 h pre): 19.6 µM; IC50 (HIV-1 strain RoJo; 6 h, treatment 6 h post): 10 µM; IC50 (HIV-1 strain RoJo; [3]): 9.3 µM; IC50 (HIV-1 strain RoJo; [4]): 11 µM; IC50 (HIV-1 strain RoJo; [5]): 12.6 µM; IC50 (HIV-1 strain RoJo; [6]): 6.6 µM; IC50 (HIV-1 strain RoJo; treatment at infection): 17.5 µM |
